Source: PMC10410440, “Preclinical PK investigation of a novel IDO1/TDO dual inhibitor—SHR9146 in mouse plasma and tissues by LC-MS/MS” (Frontiers in Oncology, 2023)
Where two headings read alike, the source gives them in different places.

Experiment: Plasma pharmacokinetics of SHR9146 in mice (LC-MS/MS, non-compartmental analysis)
Type: in vivo, ICR mice
Details: both sexes, ICR, mouse, plasma; for bioavailability: mice
Procedure: ICR mice with body weight 16–26 g were supplied by Shanghai Lingchang Biotechnology Co., Ltd. (animal breeding license number SCXK (Shanghai) 2013-0018) and housed at Shanghai Institute of Materia Medica, Chinese Academy of Sciences [animal use license number SYXK (Shanghai) 2015-0027]. The mice used in this study were fasted overnight for 12 h but had free access to water. Food was supplied 4 h post-dose. All experiments in this study were conducted in accordance with the Guidelines for the Care and Use of Laboratory Animals of Shanghai Institute of Materia Medica, Chinese Academy of Sciences.
A total of 30 mice were randomly assigned into five groups with equal numbers, males and females. One group was intravenously administrated with 5 mg/kg SHR9146 dissolved in […] plus 95% saline (adjusted pH to 4.0) under sterile conditions. The remaining four groups were administered respectively with a single dose of 20 , 40, or 80 mg/kg or multiple doses of 20 mg/kg twice daily for 7 days, by oral gavage of SHR9146 dissolved in 0.5% CMC-Na. Blood samples were obtained from the fossa orbitalis vein at 15 and 30 min and 1.0, 2.0, 4.0, 6.0, 8.0, 10.0, and 24.0 h after oral gavage administration. An additional 5-min time point was included for iv injection, as well as the pre-drug administration time points on the fifth, sixth, and seventh days in the multiple-dose group. The blood samples were collected in EDTA K2 anticoagulant blood collection tubes and centrifuged at 1,000 rpm for 5 min at 4°C. The supernatant plasma samples were thus produced.
Briefly as follows, an aliquot of 25-μL plasma or tissue homogenate was spiked with 100 μL of internal standard solution (1 μg/mL for plasma, 0.2 μg/mL for tissue homogenate) and 300 μL of methanol added and vortex mixed for 60 s. The mixture was then centrifuged at 14,000 rpm at 4°C for 5.0 min, and the supernatant was diluted with methanol–water (4:1, v/v) in a ratio of 1:9 for the plasma or 1:1 for the tissue homogenate, and 5 μL of the resulting solution was injected for the LC-MS/MS analysis.
The pharmacokinetic parameters of SHR9146 in mouse plasma were estimated by Phoenix 1.4 software using a non-compartmental model.
The mean concentration–time curves of SHR9146 in mouse plasma after a single oral gavage dose of 20, 40, or 80 mg/kg, or a single intravenous dose of 5 mg/kg, or the 7th-day steady state after twice-daily multiple oral doses of 20 mg/kg are shown in Figure 5 (Table S6).

[1] = oral, 40 mg/kg, 40 mg/kg i.g. single, read-out: plasma drug concentration, mean (n=6)
[2] = oral, 40 mg/kg, 40 mg/kg i.g. single, read-out: plasma drug concentration, individual mice #1-#6
[3] = oral, 80 mg/kg, 80 mg/kg i.g. single, read-out: plasma drug concentration, individual mice #1-#6
[4] = oral, 80 mg/kg, 80 mg/kg i.g. single, read-out: plasma drug concentration, mean (n=6)
[5] = po, 20 mg/kg, 20 mg/kg i.g. bid, 7 days (7th-day steady state), all mice (Totol, 3 male + 3 female)

concentration at 1 h [1]: 9980 ng/mL
concentration at 2 h [1]: 4920 ng/mL
concentration at 3 h [1]: 1130 ng/mL
concentration at 4 h [1]: 4350 ng/mL
concentration at 6 h [1]: 1010 ng/mL
concentration at 8 h [2]: 582 ng/mL
concentration at 10 h [2]: 293 ng/mL
concentration at 24 h [2]: 136 ng/mL
concentration at 0.25 h (oral, 80 mg/kg, 80 mg/kg i.g. single, 0.25 h, read-out: plasma drug concentration, mean (n=6)): 6130 ng/mL
concentration at 0.5 h [3]: 9320 ng/mL
concentration at 0.5 h [4]: 11300 ng/mL
concentration at 1 h [4]: 12900 ng/mL
concentration at 2 h [4]: 8930 ng/mL
concentration at 3 h [4]: 4670 ng/mL
concentration at 4 h [4]: 8950 ng/mL
concentration at 6 h [4]: 2260 ng/mL
concentration at 8 h [4]: 1200 ng/mL
concentration at 10 h [4]: 1700 ng/mL
concentration at 24 h [3]: 96 ng/mL
AUC(0-inf) [5]: 24400 ng·h/mL
Cmax at 7 days [5]: 10700 ± 811 ng/mL
half-life at 7 days [5]: 1.01 h
AUC(0-t) (po, 20 mg/kg, 20 mg/kg i.g. bid, 7 days (7th-day steady state), all mice (Totol, 3 male + 3 female), read-out: AUC0-t): 24200 ng·h/mL
Tmax (po, 20 mg/kg, 20 mg/kg i.g. bid, 7 days (7th-day steady state), all mice (Totol, 3 male + 3 female), read-out: Tmax): 0.833 ± 0.258 h
bioavailability (po, 20 mg/kg, 20 mg/kg i.g. single dose vs 5 mg/kg i.v., one value for the dose, read-out: F (absolute bioavailability)): 57.7%
AUC(0-inf) (po, 20 mg/kg, 20 mg/kg i.g. single dose, all mice (Totol, 3 male + 3 female)): 16300 ng·h/mL
AUC(0-t) (po, 20 mg/kg, 20 mg/kg i.g. single dose, all mice (Totol, 3 male + 3 female), read-out: AUC0-t): 15600 ng·h/mL
Cmax (po, 20 mg/kg, 20 mg/kg i.g. single dose, all mice (Totol, 3 male + 3 female), read-out: Cmax): 9610 ± 3110 ng/mL
Tmax (po, 20 mg/kg, 20 mg/kg i.g. single dose, all mice (Totol, 3 male + 3 female), read-out: Tmax): 0.458 ± 0.292 h
half-life (po, 20 mg/kg, 20 mg/kg i.g. single dose, all mice (Totol, 3 male + 3 female), read-out: t1/2 (converted)): 0.699 h
bioavailability (po, 40 mg/kg, 40 mg/kg i.g. single dose vs 5 mg/kg i.v., one value for the dose, read-out: F (absolute bioavailability)): 40.2%
AUC(0-t) (po, 40 mg/kg, 40 mg/kg i.g. single dose, all mice (Totol, 3 male + 3 female), read-out: AUC0-t): 21700 ng·h/mL
Cmax (po, 40 mg/kg, 40 mg/kg i.g. single dose, all mice (Totol, 3 male + 3 female), read-out: Cmax): 12400 ± 4120 ng/mL
Tmax (po, 40 mg/kg, 40 mg/kg i.g. single dose, all mice (Totol, 3 male + 3 female), read-out: Tmax): 1.58 ± 1.28 h
bioavailability (po, 80 mg/kg, 80 mg/kg i.g. single dose vs 5 mg/kg i.v., one value for the dose, read-out: F (absolute bioavailability)): 64.7%
AUC(0-inf) (po, 80 mg/kg, 80 mg/kg i.g. single dose, all mice (Totol, 3 male + 3 female)): 70900 ng·h/mL
AUC(0-t) (po, 80 mg/kg, 80 mg/kg i.g. single dose, all mice (Totol, 3 male + 3 female), read-out: AUC0-t): 70000 ng·h/mL
Cmax (po, 80 mg/kg, 80 mg/kg i.g. single dose, all mice (Totol, 3 male + 3 female), read-out: Cmax): 17100 ± 6290 ng/mL
Tmax (po, 80 mg/kg, 80 mg/kg i.g. single dose, all mice (Totol, 3 male + 3 female), read-out: Tmax): 1.5 ± 1.34 h
half-life (po, 80 mg/kg, 80 mg/kg i.g. single dose, all mice (Totol, 3 male + 3 female), read-out: t1/2 (converted)): 2.4 h
bioavailability (po, 80 mg/kg, single oral doses 20, 40, 80 mg/kg, read-out: absolute (oral) bioavailability, mean over single oral doses): 54.2%
bioavailability (po, 80 mg/kg, single oral doses 20, 40, 80 mg/kg, read-out: absolute (oral) bioavailability, range over single oral doses): 40.2 to 64.7%
AUC(0-t) (po, after oral dosing from 20 to 80 mg/kg, mouse plasma, read-out: AUC0-t, range over oral doses): 15600 to 70000 ng·h/mL
Cmax (po, after oral dosing from 20 to 80 mg/kg, mouse plasma, read-out: Cmax, range over oral doses): 8750 to 12900 ng/mL
Tmax (po, after oral gavage, mouse plasma, read-out: mean Tmax, range over oral doses): 0.458 to 1.58 h
Tmax (po, oral 20 to 80 mg/kg pooled, mouse plasma, n=6, read-out: Tmax, post-oral): 0.79 ± 0.36 h
half-life (po, oral 20 to 80 mg/kg pooled, mouse plasma, n=6, read-out: t1/2, post-oral (converted)): 1.59 ± 0.853 h
MRT inf (po, 20 mg/kg i.g. single dose, all mice (Totol, 3 male + 3 female), read-out: MRT0-∞): 1.64 h
Structure (SMILES): OCCn1cc(-c2ccc(N3CCC([C@H]4c5c(F)cccc5-c5cncn54)CC3)cc2)cn1 [SHR9146]
